# Legend:
# Influenza A virus = assay: Antiviral activity against Influenza A virus containing Matrix protein 2 V27A mutant by plaque reduction assay; assay type: functional, organism-based
# Matrix protein 2 = Matrix protein 2 (Influenza A virus, UniProt P06821, V27A); assay: Inhibition of Influenza A virus Matrix protein 2 V27A mutant
smiles,measurement,setting,value
CN1CCC2(C1)C1CC3CC(C1)CC2C3 (configuration not stated) [SPIROAMANTADINE],IC50,Influenza A virus,1000 nM
same,IC50,Matrix protein 2,300 nM

# Reference: ChEMBL document CHEMBL2163212, “Antivirals targeting influenza A virus” (J Med Chem, 2012)
